Patent US20240158446A1, “CYCLIC COMPOUND HAVING SELECTIVE INHIBITORY ACTION ON KRAS OVER HRAS AND NRAS” (CHUGAI SEIYAKU KABUSHIKI KAISHA, priority 2021, published 2024)
Read-outs that look alike come from different tables or passages of the source.

Columns and labels:
[1] = target: GDP-bound KRAS wild-type protein (Homo sapiens, UniProt P01116); assay: Binding to KRAS by surface plasmon resonance (SPR), Single Cycle Kinetics
[2] = target: GDP-bound NRAS wild-type protein (Homo sapiens, UniProt P01111); assay: Binding to NRAS by surface plasmon resonance (SPR), Single Cycle Kinetics; details: for NRAS/KRAS (ratio of KD value with respect to GDP-bound NRAS wild-type protein to KD value with respect to KRAS): SPR KD ratio NRAS/KRAS, class symbols; for NRAS/KRAS (ratio of KD value for NRAS to KD value for KRAS) / ratio of the KD value with respect to GDP-bound NRAS wild-type protein to the KD value with respect to KRAS: SPR; for NRAS/KRAS (ratio of KD value for NRAS to KD value for KRAS): GDP-bound NRAS wild-type protein vs GDP-bound KRAS wild-type protein
[3] = system: human lung cancer strain NCI-H441;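 also: cell proliferation inhibition after four days measured by CellTiter-Glo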
[4] = target: GDP-bound HRAS wild-type protein (Homo sapiens, UniProt P01112); assay: Binding to HRAS by surface plasmon resonance (SPR), Single Cycle Kinetics; details: for HRAS/KRAS (ratio of KD value with respect to GDP-bound HRAS wild-type protein to KD value with respect to KRAS): SPR KD ratio HRAS/KRAS, class symbols; for HRAS/KRAS (ratio of KD value for HRAS to KD value for KRAS) / ratio of the KD value with respect to GDP-bound HRAS wild-type protein to the KD value with respect to KRAS: SPR; for HRAS/KRAS (ratio of KD value for HRAS to KD value for KRAS): GDP-bound HRAS wild-type protein vs GDP-bound KRAS wild-type protein
[5] = SPR Single Cycle Kinetics, GDP-bound KRAS wild-type protein, 1:1 binding model, read-out: KRAS KD
[6] = SPR, Single Cycle Kinetics, GDP-bound KRAS wild-type protein, read-out: KRAS KD
[7] = read-out: NCI-H441 cell proliferation inhibitory activity, 50% proliferation inhibitory concentration (IC50 value), NCI-H441, four days, CellTiter-Glo
[8] = SPR, Single Cycle Kinetics, 1:1 binding model, GDP-bound KRAS wild-type protein, read-out: KRAS KD

GDP-bound NRAS wild-type protein, sequence (P01111 whole entry): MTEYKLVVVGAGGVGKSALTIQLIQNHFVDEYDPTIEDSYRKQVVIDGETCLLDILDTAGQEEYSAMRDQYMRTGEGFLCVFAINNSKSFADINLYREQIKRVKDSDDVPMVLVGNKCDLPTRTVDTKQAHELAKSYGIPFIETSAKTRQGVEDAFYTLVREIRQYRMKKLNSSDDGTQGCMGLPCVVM
GDP-bound HRAS wild-type protein, sequence (P01112 whole entry): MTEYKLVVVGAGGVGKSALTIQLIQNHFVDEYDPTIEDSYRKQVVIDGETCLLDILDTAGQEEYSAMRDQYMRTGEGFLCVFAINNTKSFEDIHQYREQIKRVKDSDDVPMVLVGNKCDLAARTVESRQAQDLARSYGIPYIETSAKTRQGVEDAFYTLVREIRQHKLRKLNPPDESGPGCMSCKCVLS
GDP-bound KRAS wild-type protein, sequence (P01116 whole entry): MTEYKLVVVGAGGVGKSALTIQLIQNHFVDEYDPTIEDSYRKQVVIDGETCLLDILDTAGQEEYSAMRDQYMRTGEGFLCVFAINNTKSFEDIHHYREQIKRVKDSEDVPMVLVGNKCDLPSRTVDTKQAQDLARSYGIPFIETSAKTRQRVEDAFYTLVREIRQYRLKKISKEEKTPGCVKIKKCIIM

IC50 [3] | Kd [1, 6] | SMILES | Kd [1, 5] | NRAS/KRAS (ratio of KD value with respect to GDP-bound NRAS wild-type protein to KD value with respect to KRAS) [2] | HRAS/KRAS (ratio of KD value with respect to GDP-bound HRAS wild-type protein to KD value with respect to KRAS) [4] | NRAS/KRAS (ratio of KD value for NRAS to KD value for KRAS) [2] | HRAS/KRAS (ratio of KD value for HRAS to KD value for KRAS) [4] | other results
5.3 nM | – | CCC[C@H]1C(=O)N[C@@H]([C@@H](C)CC)C(=O)N(C)CC(=O)N(C)[C@H]2C/C=C\CCN(C2=O)[C@@H](Cc2ccc(C)cc2)C(=O)N(C)CC(=O)N[C@@H](CCc2ccc(C(F)(F)F)c(OC)c2)C(=O)N2C[C@H](OCC)C[C@H]2C(=O)NC2(CC(C)(C)C2)C(=O)N(C)[C@@H](CC(C)(C)C)C(=O)N(C)[C@H](C(=O)N(C)C)CC(=O)N1C [PP2710] | 0.1 nM | B (a compound having 3 or more and less than 10 is denoted as B) | B (a compound having 3 or more and less than 10 is denoted as B) | – | – | –
115 nM | 0.25 nM | CCO[C@H](C)[C@@H]1NC(=O)[C@H](CC(C)C)N(C)C(=O)C[C@@H](C(=O)N(C)CC)N(C)C(=O)[C@H](C2CCCC2)N(C)C(=O)C2(CC(C)(C)C2)NC(=O)[C@@H]2C[C@H](C)CN2C(=O)[C@H](CCc2ccc(C(F)(F)F)c(OC)c2)NC(=O)CN(C)C(=O)[C@H](Cc2ccc(C)cc2)N2CC/C=C\C[C@@H](C2=O)N(C)C(=O)CN(C)C1=O [PP2413] | – | – | – | A (a compound having 10 or more and less than 20 is denoted as A) | A (a compound having 10 or more and less than 20 is denoted as A) | –
53.6 nM | 0.33 nM | CCO[C@@H]1C[C@H]2C(=O)NC3(CCC3)C(=O)N(C)[C@@H](C3CCCC3)C(=O)N(C)[C@H](C(=O)N(C)C)CC(=O)N(C)[C@@H](CC)C(=O)N[C@@H]([C@@H](C)CC)C(=O)N(C)CC(=O)N(C)[C@H]3CCCCCN(C3=O)[C@@H](Cc3ccc(C(F)(F)F)cc3)C(=O)N(C)CC(=O)N[C@@H](CCc3ccc4sccc4c3)C(=O)N2C1 [PP0892] | – | – | – | B (a compound having 3 or more and less than 10 is denoted as B) | B (a compound having 3 or more and less than 10 is denoted as B) | –
– | 0.025 nM | CC[C@H](C)[C@@H]1NC(=O)[C@@H]2CCCCCc3ccc(cc3)C[C@@H](C(=O)N(C)CC(=O)N[C@@H](CCc3ccc(C(F)(F)F)c(OC)c3)C(=O)N3CC4(CC4)C[C@H]3C(=O)NC3(CC(C)(C)C3)C(=O)N(C)[C@@H](C3CCCC3)C(=O)N(C)[C@H](C(=O)N(C)C)CC(=O)N2C)N2CC/C=C\C[C@@H](C2=O)N(C)C(=O)CN(C)C1=O [PP3074] | – | – | – | A (a compound having 10 or more and less than 20 is denoted as A) | A (a compound having 10 or more and less than 20 is denoted as A) | ratio of the KD value with respect to GDP-bound NRAS wild-type protein to the KD value with respect to KRAS [2]: A (a compound having 10 or more and less than 20 is denoted as A); IC50 [3, 7]: 2.4 nM; ratio of the KD value with respect to GDP-bound HRAS wild-type protein to the KD value with respect to KRAS [4]: A (a compound having 10 or more and less than 20 is denoted as A)
81.1 nM | 1.1 nM | CCO[C@@H]1C[C@H]2C(=O)NC3(CCCC3)C(=O)N(C)[C@@H](C3CCCC3)C(=O)N(C)[C@H](C(=O)N3CCOCC3)CC(=O)N(C)[C@@H](COC)C(=O)N[C@@H]([C@@H](C)CC)C(=O)NCC(=O)N(C)[C@H]3CCCCCN(C3=O)[C@@H](Cc3ccc(C(F)(F)F)cc3)C(=O)N(C)CC(=O)N[C@@H](CCc3cc(F)c(C(F)(F)F)c(F)c3)C(=O)N2C1 [PP0862] | – | – | – | B (a compound having 3 or more and less than 10 is denoted as B) | B (a compound having 3 or more and less than 10 is denoted as B) | –
– | 0.38 nM | CCC[C@H]1C(=O)N[C@@H]([C@@H](C)CC)C(=O)N(C2CC2)CC(=O)N(C)[C@H]2C/C=C\CCN(C2=O)[C@@H](Cc2ccc(C(F)(F)F)cc2)C(=O)N(C)CC(=O)N[C@@H](CCc2ccc(C(F)(F)F)c(OC)c2)C(=O)N2C[C@H](OCC)C[C@H]2C(=O)N(C)C2(CCC2)C(=O)N(C)[C@@H](C2CCCC2)C(=O)N(C)[C@H](C(=O)N2CCCC2)CC(=O)N1C [PP3097] | – | – | – | A (a compound having 10 or more and less than 20 is denoted as A) | A (a compound having 10 or more and less than 20 is denoted as A) | Kd ([1]; SPR, Single Cycle Kinetics, 1:1 binding model, read-out: KD value with respect to GDP-bound KRAS wild-type protein): 0.38 nM; ratio of the KD value with respect to GDP-bound NRAS wild-type protein to the KD value with respect to KRAS [2]: A (a compound having 10 or more and less than 20 is denoted as A); IC50 [3, 7]: 5.4 nM; ratio of the KD value with respect to GDP-bound HRAS wild-type protein to the KD value with respect to KRAS [4]: A (a compound having 10 or more and less than 20 is denoted as A)
59.3 nM | – | CCO[C@@H]1C[C@H]2C(=O)NC3(CCC3)C(=O)N(C)[C@@H](C3CCCC3)C(=O)N(C)[C@H](C(=O)N(C)C)CC(=O)N(C)[C@@H](CC3CC3)C(=O)N[C@@H]([C@@H](C)CC)C(=O)N(C)CC(=O)N(C)[C@H]3C/C=C\CCN(C3=O)[C@@H](Cc3ccc(C)cc3)C(=O)N(C)CC(=O)N[C@@H](CCc3cc(F)c(Cl)c(F)c3)C(=O)N2C1 [PP1484] | – | – | – | – | – | Kd [1, 8]: 0.45 nM; NRAS/KRAS (ratio of KD value for NRAS to KD value for KRAS) ([2]; KD ratio class): A (a compound having 10 or more and less than 20 is denoted as A); HRAS/KRAS (ratio of KD value for HRAS to KD value for KRAS) ([4]; KD ratio class): A (a compound having 10 or more and less than 20 is denoted as A)
18.7 nM | – | CCC[C@H]1C(=O)N[C@@H]([C@@H](C)CC)C(=O)N(C)CC(=O)N(C)[C@H]2C/C=C\CCN(C2=O)[C@@H](Cc2ccc(C(F)(F)F)cc2)C(=O)N(C)CC(=O)N[C@@H](CCc2ccc(Cl)c(Cl)c2)C(=O)N2C[C@H](OCC)C[C@H]2C(=O)NC2(CCC2)C(=O)N(C)[C@@H](C2CCCC2)C(=O)N(C)[C@H](C(=O)N(C)C)CC(=O)N1C [PP1250] | – | – | – | – | – | Kd [1, 8]: 0.19 nM; NRAS/KRAS (ratio of KD value for NRAS to KD value for KRAS) ([2]; KD ratio class): AA (a compound having 20 or more is denoted as AA); HRAS/KRAS (ratio of KD value for HRAS to KD value for KRAS) ([4]; KD ratio class): A (a compound having 10 or more and less than 20 is denoted as A)

SMILES | IC50 [3] | Kd [1, 6] | Kd [1, 5] | NRAS/KRAS (ratio of KD value with respect to GDP-bound NRAS wild-type protein to KD value with respect to KRAS) [2] | HRAS/KRAS (ratio of KD value with respect to GDP-bound HRAS wild-type protein to KD value with respect to KRAS) [4] | NRAS/KRAS (ratio of KD value for NRAS to KD value for KRAS) [2] | HRAS/KRAS (ratio of KD value for HRAS to KD value for KRAS) [4] | other results
CC[C@H](C)[C@@H]1NC(=O)[C@H](COC)N(C)C(=O)C[C@@H](C(=O)N2CCCCC2)N(C)C(=O)[C@H](C2CCCC2)N(C)C(=O)C2(CC(C)(C)C2)NC(=O)[C@@H]2C[C@@H](OC(C)C)CN2C(=O)[C@H](CCc2ccc(Cl)c(Cl)c2)NC(=O)CN(C)C(=O)[C@H](Cc2ccc(C(F)(F)F)cc2)N2CC/C=C\C[C@@H](C2=O)N(C)C(=O)CN(C)C1=O [PP2671] | 26.3 nM | – | 0.67 nM | A (a compound having 10 or more and less than 20 is denoted as A) | A (a compound having 10 or more and less than 20 is denoted as A) | – | – | –
CC[C@H](C)[C@@H]1NC(=O)[C@H](COC)N(C)C(=O)C[C@@H](C(=O)N2CCCCC2)N(C)C(=O)[C@H](C2CCCC2)N(C)C(=O)C2(CC(C)(C)C2)NC(=O)[C@@H]2C[C@@H](OC3CCCC3)CN2C(=O)[C@H](CCc2cc(F)c(C(F)(F)F)c(F)c2)NC(=O)CN(C)C(=O)[C@H](Cc2ccc(C(F)(F)F)cc2)N2CC/C=C\C[C@@H](C2=O)N(C)C(=O)CN(C)C1=O [PP2665] | 23.4 nM | – | 0.56 nM | A (a compound having 10 or more and less than 20 is denoted as A) | A (a compound having 10 or more and less than 20 is denoted as A) | – | – | –
